These results are taken from patent US10233157B2, “SIK inhibitor for use in a method of treating an inflammatory and/or immune disorder” (Dana-Farber Cancer Institute, Inc., priority 2012, dated 2019).

Read-outs that look alike come from different tables or passages of the source.

The subject of one test is RAW264.7 macrophages. Kind of test: IL-10 mRNA in RAW264.7 cells with shRNA knockdown of SIKs. Conditions: for IC50: Mus musculus, RAW264.7, 1 h. It is filed as cell-based. Here is the method:
. (FIG. 16A) mRNA abundance of SIK1, SIK2 and SIK3 in RAW264.7 macrophages. Gene expression was measured by qPCR. The number of copies of each SIK mRNA was normalized to GAPDH. (mean±SD, n=3). (FIG. 16B) The efficiency of SIK knock-down. RAW264.7 cells were transduced with lentiviral vectors encoding a control shRNA or shRNAs targetting SIK1, SIK2 and SIK3. The expression of SIK1, SIK2 and SIK3 was measured by qPCR and normalized to that of control cells using GAPDH (mean±SD, n=3). […]. The levels of IL-10 mRNA were measured by qPCR and normalized using GAPDH. Data are presented with the highest level of expression set to 1 (mean±SD, n=3). […] (FIG. 16D) Increased IL-10 expression in cells with decreased SIK expression. […].
RNAi in Macrophages RAW264.7 cells or BMDMs were transfected with 100 pmol of SMARTpool siRNA oligos against CREB, CRTC1, CRTC2, CRTC3 or a non-targetting control (Dharmacon) using AMAXA nucleofection. Cells were cultured for 24 h prior to incubation with inhibitors for 1 h followed by stimulation for 1 h with 100 ng/ml LPS. Gene expression was measured by real-time quantitative PCR. For shRNA knockdown of SIKs, lentivirus was generated according to the manufacturer's instructions (Sigma) and RAW264.7 cells were infected using virus harvested 48 and 72 h post-transfection. Infected cells were selected using 3 μg/ml puromycin. QPCR

Another test relates to CREB luciferase reporter. Kind of test: CREB luciferase reporter assay in HEK293 cells. The test is classed as cell-based. The conditions noted are these: HEK293, 2 μM MRT67307, 10 μM forskolin 2 h. Here is the method: FIG. 5. […] HEK293 cells were co-transfected with DNA encoding a CREB luciferase reporter construct and pTK-RL. […] Luciferase activity was measured with a dual luciferase assay system (Promega) and was normalized to Renilla luciferase activity (n=3, mean±SEM).
HEK293 cells were co-transfected with DNA encoding FLAG-CRTC3 or phosphomutants along with a CREB firefly luciferase reporter construct (pCRE-luc from Stratagene) and pTK-RL which encodes renilla luciferase under the control of a constitutive promoter. At 24 h post-transfection, cells were treated with or without 10 μM KIN112 for a further 24 h. Firefly luciferase activity was measured with a dual luciferase assay system (Promega) and was normalized to Renilla luciferase activity.
(In a reporter assay the amount or activity of a reporter protein is the signal.)

The test system of test [1] is TLR-stimulated macrophages. Kind of test: qPCR of CREB-dependent gene mRNA in TLR-stimulated macrophages. It is filed as cell-based, mouse. As for the experimental part:
Bone-marrow derived macrophages were differentiated for 7 days in DMEM supplemented with 5 ng/ml recombinant M-CSF (R&D systems), 2 mM glutamine, 10% foetal calf serum, penicillin and streptomycin. […]
mRNA was extracted from macrophages using the RNeasy Micro Kit following the manufacturers' instructions (Qiagen). cDNA was generated from 1 μg of total RNA using the iScript cDNA synthesis kit and quantified by qPCR using the SsoFast EvaGreen Supermix on a CFX96 real time system (Bio-Rad Laboratories). The relative expression of each gene was calculated from Ct values using the Pfaffl method^30 and was normalized against the mRNA levels of 18S RNA. The following primers were used: IL-10-F, […]; IL-10-R, […]; c-Fos-F, […]; c-Fos-R, […]; nurr1-F, […]; nurr1-R, […]; nurr77-F, […]; nurr77-R, […]; 18S-F, […]; 18S-R, […]; IL-1ra-F, […]; IL-1ra-R, […]; SPHK1-F, […]; SPHK1-R, […]; LIGHT-F, […]; LIGHT-R, […]; ArgI-F, […]; ArgI-R, […]; IFN-F, […]; IFNγ-R, […].
[…]. Biochem J 434:93-104) using the indicated antibodies. RNA was extracted using the RNeasy Micro Kit (Qiagen). cDNA was generated using the iScript cDNA synthesis kit and quantified by qPCR using the SsoFast EvaGreen Supermix (Bio-Rad Laboratories). The relative expression of each gene was calculated from Ct values using the Pfaffl method (Pfaffl M W (2001) A new mathematical model for relative quantification in real-time RT-PCR. Nucleic Acids Res 29:e45) and was normalized against the mRNA levels of 18S or GAPDH RNA. Fold-induction for each gene was reported relative to untreated control cells, which was set to 1. The concentrations of TNFα, IL-6, IL-10, IL-12p40, and RANTES in culture supernatants were measured using the Bio-Plex Pro Assay system from Bio-Rad. Further details in supplementary information.
mRNA was extracted from cells using the RNeasy Micro Kit following the manufacturers' instructions (Qiagen). cDNA was generated from 1 μg of total RNA using the iScript cDNA synthesis kit and quantified by qPCR using the SsoFast EvaGreen Supermix on a CFX96 real time system (Bio-Rad Laboratories). The relative expression of each gene was calculated from Ct values using the Pfaffl method (5) and was normalized against the mRNA levels of 18S RNA or GAPDH. Results are reported relative to untreated control cells, which was set to 1. The following primers were used: […]
For orientation: In qPCR the cycle at which signal appears reflects the starting amount.

Setting [2] is: LPS-stimulated macrophages with MRT67307.

Regarding `COc1ccc(N(C(=O)Nc2c(C)cccc2C)c2cc(Nc3ccc(N4CCN(C)CC4)cc3)ncn2)c(OC)c1` [HG-9-91-01, 1-(2,4-dimethoxyphenyl)-3-(2,6-dimethylphenyl)-1-(6-((4-(4-methylpiperazin-1-yl)phenyl)amino)pyrimidin-4-yl)urea], the IC50 in the test on RAW264.7 macrophages (read-out: IC50 for stimulation of IL-10 mRNA, SIK1/2/3 shRNA cells, 1 μg/ml Pam3CSK4 1 h) was found to be 0.15 ± 0.02 µM; in the test with RAW264.7 macrophages (read-out: IC50 for stimulation of IL-10 mRNA, control shRNA cells, 1 μg/ml Pam3CSK4 1 h) it was 0.26 ± 0.01 µM. Moreover, the “IL-10 mRNA expression in SIK-depleted versus wild-type macrophages” value in the test on RAW264.7 macrophages (suboptimal concentration (100 nM)) was found to be 4 fold.

Turning to `O=C(NCCCNc1nc(Nc2cccc(CN3CCOCC3)c2)ncc1C1CC1)C1CCC1` [MRT67307], in the test on CREB luciferase reporter, the CREB-dependent luciferase transcription entry is “increases”. Also, in test [1] (setting [2]), the “time at which IL-10 mRNA levels reach a maximum” value is 1 h and the “time at which IL-10 mRNA returns to near basal levels” value came out at 4 h. Besides, the “mRNA of CREB-dependent genes c-fos, nurr1 and nurr77” value in test [1] (TLR-stimulated macrophages) is “increase”. The “IL-10 mRNA” value in test [1] (TLR/LPS-stimulated macrophages) is on record as “dramatically increased”.
